Data from US8802597B2, “Herbicidal pyrimidines” (E I du Pont de Nemours and Company, priority 2003, dated 2014).
Like-named read-outs stand apart in the source and are kept apart here.

Columns and labels:
Assay type in all cases: in vivo
[1] = test system: crabgrass (Digitaria sanguinalis); test: Test A pre/postemergence; conditions: Digitaria sanguinalis, 240 h, read-out: Plant response rating, Crabgrass; for pest or weed control at 125 g/ha: 125 g ai/ha; for pest or weed control at 500 g/ha: 500 g ai/ha
Summary of the method: (§1)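 Visual injury scores on a 0–100 scale, 100 being complete control, were assigned roughly ten days after treatment by comparison with untreated greenhouse controls. Test chemicals, formulated with surfactant in non-phytotoxic solvent, were sprayed onto soil preemergence and onto 1–2-leaf plants 2–10 cm tall postemergence.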

[2] = test system: redroot pigweed (Amaranthus retroflexus); test: Test A pre/postemergence; conditions: Amaranthus retroflexus, 240 h, read-out: Plant response rating, Pigweed; for pest or weed control at 125 g/ha: 125 g ai/ha; for pest or weed control at 500 g/ha: 500 g ai/ha
Summary of the method: as §1

[3] = test system: giant foxtail (Setaria faberi); test: Test A pre/postemergence; conditions: Setaria faberi, 240 h, read-out: Plant response rating, Foxtail, Giant; for pest or weed control at 125 g/ha: 125 g ai/ha; for pest or weed control at 500 g/ha: 500 g ai/ha
Summary of the method: as §1

[4] = test system: velvetleaf (Abutilon theophrasti); test: Test A pre/postemergence; conditions: Abutilon theophrasti, 240 h, read-out: Plant response rating, Velvetleaf; for pest or weed control at 125 g/ha: 125 g ai/ha; for pest or weed control at 500 g/ha: 500 g ai/ha
Summary of the method: as §1

[5] = test system: barnyardgrass (Echinochloa crus-galli); test: Test A pre/postemergence; conditions: Echinochloa crus-galli, 240 h, read-out: Plant response rating, Barnyardgrass; for pest or weed control at 125 g/ha: 125 g ai/ha; for pest or weed control at 500 g/ha: 500 g ai/ha
Summary of the method: as §1

[6] = test system: morningglory (Ipomoea spp.); test: Test A pre/postemergence; conditions: Ipomoea, 240 h, read-out: Plant response rating, Morningglory; for pest or weed control at 125 g/ha: 125 g ai/ha; for pest or weed control at 500 g/ha: 500 g ai/ha
Summary of the method: as §1

[7] = test system: chickweed (Stellaria media); test: Test C postemergence; conditions: Stellaria media, post-emergence
Summary of the method: (§2)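 Greenhouse herbicide screen, visual readout. Compound in solvent/surfactant applied preemergence at planting or postemergence to 1- to 4-leaf plants; assessed at 12–14 days on a 0–100 control scale.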

[8] = test system: johnsongrass (Sorghum halepense); test: Test C pre/postemergence; conditions: Sorghum halepense; for pest or weed control at 8 g/ha: 8 g ai/ha; for pest or weed control at 16 g/ha: 16 g ai/ha; for pest or weed control at 31 g/ha: 31 g ai/ha; for pest or weed control at 62 g/ha: 62 g ai/ha
Summary of the method: as §2

[9] = test system: soybean (Glycine max); test: Test C pre/postemergence; conditions: Glycine max; for plant injury at 8 g/ha: 8 g ai/ha; for plant injury at 16 g/ha: 16 g ai/ha; for plant injury at 31 g/ha: 31 g ai/ha; for plant injury at 62 g/ha: 62 g ai/ha
Summary of the method: as §2

[10] = test system: lambsquarters (Chenopodium album); test: Test C pre/postemergence; conditions: Chenopodium album; for pest or weed control at 8 g/ha: 8 g ai/ha; for pest or weed control at 16 g/ha: 16 g ai/ha; for pest or weed control at 31 g/ha: 31 g ai/ha; for pest or weed control at 62 g/ha: 62 g ai/ha
Summary of the method: as §2

[11] = test system: bermudagrass (Cynodon dactylon); test: Test C pre/postemergence; conditions: Cynodon dactylon; for pest or weed control at 8 g/ha: 8 g ai/ha; for pest or weed control at 16 g/ha: 16 g ai/ha; for pest or weed control at 31 g/ha: 31 g ai/ha; for pest or weed control at 62 g/ha: 62 g ai/ha
Summary of the method: as §2

[12] = post-emergence, Postemergence, 0 to 100 scale (0 no effect, 100 complete control)
[13] = pre-emergence, Preemergence, 0 to 100 scale where 0 is no effect and 100 is complete control, approximately ten days
[14] = post-emergence, Postemergence, read-out: Plant response rating (scale of 0 to 100), Johnsongrass
[15] = pre-emergence, Preemergence, scale 0 to 100, 0 no effect, 100 complete control, read-out: Plant response rating, Johnsongrass
[16] = post-emergence, Postemergence, read-out: Plant response rating (scale of 0 to 100), Soybean
[17] = pre-emergence, Preemergence, scale 0 to 100, 0 no effect, 100 complete control, read-out: Plant response rating, Soybean
[18] = post-emergence, Postemergence, read-out: Plant response rating (scale of 0 to 100), Lambsquarters
[19] = pre-emergence, Preemergence, scale 0 to 100, 0 no effect, 100 complete control, read-out: Plant response rating, Lambsquarters
[20] = post-emergence, Postemergence, read-out: Plant response rating (scale of 0 to 100), Bermudagrass
[21] = pre-emergence, Preemergence, scale 0 to 100, 0 no effect, 100 complete control, read-out: Plant response rating, Bermudagrass

## Nc1nc(-c2ccc(Br)cc2)nc(C(=O)O)c1Cl [Compound 95, 6-amino-2-(4-bromophenyl)-5-chloro-4-pyrimidinecarboxylic acid]
[1]; [12]
  pest or weed control at 125 g/ha: 70%
  pest or weed control at 500 g/ha: 80%
[1]; [13]
  pest or weed control at 125 g/ha: 65%
  pest or weed control at 500 g/ha: 85%
[2]; [12]
  pest or weed control at 125 g/ha: 85%
  pest or weed control at 500 g/ha: 95%
[2]; [13]
  pest or weed control at 125 g/ha: 95%
  pest or weed control at 500 g/ha: 100%
[3]; [12]
  pest or weed control at 125 g/ha: 85%
  pest or weed control at 500 g/ha: 85%
[3]; [13]
  pest or weed control at 125 g/ha: 65%
  pest or weed control at 500 g/ha: 90%
[4]; [12]
  pest or weed control at 125 g/ha: 90%
  pest or weed control at 500 g/ha: 95%
[4]; [13]
  pest or weed control at 125 g/ha: 55%
  pest or weed control at 500 g/ha: 95%
[5]; [12]
  pest or weed control at 125 g/ha: 75%
  pest or weed control at 500 g/ha: 90%
[5]; [13]
  pest or weed control at 125 g/ha: 20%
  pest or weed control at 500 g/ha: 80%
[6]; [12]
  pest or weed control at 125 g/ha: 75%
  pest or weed control at 500 g/ha: 80%
[6]; [13]
  pest or weed control at 125 g/ha: 80%
  pest or weed control at 500 g/ha: 85%
[7]; 8 g ai/ha, scale 0 to 100, read-out: Plant response rating, Chickweed
  pest or weed control at 8 g/ha: 95%
[7]; 62 g ai/ha, read-out: Plant response rating (scale of 0 to 100), Chickweed
  pest or weed control at 62 g/ha: 95%
[8]; post-emergence, Postemergence, scale 0 to 100, read-out: Plant response rating, Johnsongrass
  pest or weed control at 8 g/ha: 55%
[8]; [14]
  pest or weed control at 16 g/ha: 70%
  pest or weed control at 31 g/ha: 75%
  pest or weed control at 62 g/ha: 90%
[8]; pre-emergence, Preemergence, scale 0 to 100 (0 no effect, 100 complete control), read-out: Plant response rating, Johnsongrass
  pest or weed control at 8 g/ha: 0%
[8]; [15]
  pest or weed control at 16 g/ha: 50%
  pest or weed control at 31 g/ha: 60%
  pest or weed control at 62 g/ha: 80%
[9]; post-emergence, Postemergence, scale 0 to 100, read-out: Plant response rating, Soybean
  plant injury at 8 g/ha: 100%
[9]; [16]
  plant injury at 16 g/ha: 100%
  plant injury at 31 g/ha: 100%
  plant injury at 62 g/ha: 100%
[9]; pre-emergence, Preemergence, scale 0 to 100 (0 no effect, 100 complete control), read-out: Plant response rating, Soybean
  plant injury at 8 g/ha: 90%
[9]; [17]
  plant injury at 16 g/ha: 90%
  plant injury at 31 g/ha: 100%
  plant injury at 62 g/ha: 100%
[10]; post-emergence, Postemergence, scale 0 to 100, read-out: Plant response rating, Lambsquarters
  pest or weed control at 8 g/ha: 75%
[10]; [18]
  pest or weed control at 16 g/ha: 100%
  pest or weed control at 31 g/ha: 100%
  pest or weed control at 62 g/ha: 100%
[10]; pre-emergence, Preemergence, scale 0 to 100 (0 no effect, 100 complete control), read-out: Plant response rating, Lambsquarters
  pest or weed control at 8 g/ha: 0%
[10]; [19]
  pest or weed control at 16 g/ha: 100%
  pest or weed control at 31 g/ha: 100%
  pest or weed control at 62 g/ha: 100%
[11]; post-emergence, Postemergence, scale 0 to 100 (0 no effect, 100 complete control), read-out: Plant response rating, Bermudagrass
  pest or weed control at 8 g/ha: 70%
[11]; [20]
  pest or weed control at 16 g/ha: 70%
  pest or weed control at 31 g/ha: 85%
[11]; post-emergence, Postemergence, scale 0 to 100 (0 no effect, 100 complete control), read-out: Bermudagrass plant response rating
  pest or weed control at 62 g/ha: 85%
[11]; pre-emergence, Preemergence, scale 0 to 100 (0 no effect, 100 complete control), read-out: Plant response rating, Bermudagrass
  pest or weed control at 8 g/ha: 0%
[11]; [21]
  pest or weed control at 16 g/ha: 0%
  pest or weed control at 31 g/ha: 0%
  pest or weed control at 62 g/ha: 55%
